Reference: patent EP0908457B1, “3-(1,2-benzisothiazol- and isoxazol-5-Y1)-2,4(1H,3H)-pyrimidinedione or thione and 3-(1,2-benzisothiazol- and isoxazol-5-y1)-4(3H)-pyrimidinone or thione herbicidal agents” (BASF AKTIENGESELLSCHAFT, priority 1997, dated 1999)

How the values were obtained:
[1] = tested on: Echinochloa oryzoides (Ard.) Fritsch.; assay: Preemergence weed control under flooded paddy conditions, ECHORC (Watergrass (Calif.)); format: in vivo; details: flooded paddy; for herbicidal effect rating, ECHORC / ECHORC herbicidal rating / ECHORC herbicidal effect rating: preemergence, rated three to four weeks after treatment; for ECHORC: preemergence weeds, herbicidal effect rating 0-9, three to four weeks after treatment; on herbicidal effect rating, ECHORC: meaning of each grade not given here
Cyperus iria = assay: Preemergence weed control under flooded paddy conditions, CYPIR (Rice Flatsedge); format: in vivo; details: flooded paddy; for herbicidal effect rating, CYPIR / CYPIR herbicidal rating / CYPIR herbicidal effect rating: preemergence, rated three to four weeks after treatment; for CYPIR: preemergence weeds, herbicidal effect rating 0-9, three to four weeks after treatment; on herbicidal effect rating, CYPIR: meaning of each grade not given here
[2] = tested on: Cyperus serotinus, Rottb.; assay: Preemergence weed control under flooded paddy conditions, CYPSE (Flatsedge); format: in vivo; details: for CYPSE: preemergence weeds, herbicidal effect rating 0-9, three to four weeks after treatment; on herbicidal effect rating, CYPSE: meaning of each grade not given here
[3] = tested on: Monochoria vaginalis, Presl.; assay: Preemergence weed control under flooded paddy conditions, MOOVA (Monochoria); format: in vivo; details: flooded paddy; for herbicidal effect rating, MOOVA / MOOVA herbicidal rating / MOOVA herbicidal effect rating: preemergence, rated three to four weeks after treatment; for MOOVA: preemergence weeds, herbicidal effect rating 0-9, three to four weeks after treatment; on herbicidal effect rating, MOOVA: meaning of each grade not given here
Sagittaria pygmaea, L. = assay: Preemergence weed control under flooded paddy conditions, SAGPY (Arrowhead (Pygmaea)); format: in vivo; details: flooded paddy; for herbicidal effect rating, SAGPY / SAGPY herbicidal rating / SAGPY herbicidal effect rating: preemergence, rated three to four weeks after treatment; for SAGPY: preemergence weeds, herbicidal effect rating 0-9, three to four weeks after treatment; on herbicidal effect rating, SAGPY: meaning of each grade not given here
[4] = tested on: Oryza sativa, (L.) Tebonnet; assay: Rice tolerance to post-transplant applications under flooded paddy conditions (Example 187), ORYSAT (Rice, Tebonnet); details: for herbicidal effect rating ORYSAT / ORYSAT herbicidal rating (rice tolerance) / herbicidal effect rating, ORYSAT (rice tolerance) / ORYSAT herbicidal effect rating: rated three to four weeks after treatment; for ORYSAT: herbicidal effect rating 0-9, three to four weeks after treatment
[5] = Rate 0.1250 kg/ha, preemergence, rated three to four weeks after treatment
[6] = 0.0313 kg/ha, preemergence, rated three to four weeks after treatment
[7] = 0.0625 kg/ha, preemergence, rated three to four weeks after treatment
[8] = 0.1250 kg/ha, preemergence, rated three to four weeks after treatment
[9] = 0.2500 kg/ha, preemergence, rated three to four weeks after treatment

Cc1ccc(C=C(C#N)c2nsc3ccc(-n4c(=O)cc(C(F)(F)F)n(C)c4=O)cc23)cc1 [Example 597, 1,2-Benzisothiazole-3-acetonitrile, 5-[3,6-dihydro-3-methyl-2,6-dioxo-4-(trifluoromethyl)-1(2H)-pyrimidinyl]-alpha-(p-methylbenzylidene)-]
0.0: herbicidal effect rating, CYPIR (Cyperus iria; Rate 0.0320 kg/ha) | herbicidal effect rating, CYPIR (Cyperus iria; Rate 0.0620 kg/ha) | herbicidal effect rating, CYPIR (Cyperus iria; Rate 0.1250 kg/ha) | herbicidal effect rating, CYPIR (Cyperus iria; Rate 0.2500 kg/ha) | herbicidal effect rating, CYPSE ([2]; Rate 0.0320 kg/ha, preemergence, rated three to four weeks after treatment) | herbicidal effect rating, CYPSE ([2]; Rate 0.0620 kg/ha, preemergence, rated three to four weeks after treatment) | herbicidal effect rating, CYPSE [2, 5] | herbicidal effect rating, CYPSE ([2]; Rate 0.2500 kg/ha, preemergence, rated three to four weeks after treatment) | herbicidal effect rating, SAGPY (Sagittaria pygmaea, L.; Rate 0.0320 kg/ha) | herbicidal effect rating, SAGPY (Sagittaria pygmaea, L.; Rate 0.0620 kg/ha) | herbicidal effect rating, SAGPY (Sagittaria pygmaea, L.; Rate 0.1250 kg/ha) | herbicidal effect rating, SAGPY (Sagittaria pygmaea, L.; Rate 0.2500 kg/ha) | herbicidal effect rating ORYSAT ([4]; Rate 0.0320 kg/ha) | herbicidal effect rating ORYSAT ([4]; Rate 0.0620 kg/ha) | herbicidal effect rating ORYSAT ([4]; Rate 0.1250 kg/ha) | herbicidal effect rating ORYSAT ([4]; Rate 0.2500 kg/ha)
7.0: herbicidal effect rating, ECHORC ([1]; Rate 0.1250 kg/ha)
6.0: herbicidal effect rating, ECHORC ([1]; Rate 0.0620 kg/ha)
9.0: herbicidal effect rating, ECHORC ([1]; Rate 0.2500 kg/ha)
4.0: herbicidal effect rating, ECHORC ([1]; Rate 0.0320 kg/ha) | herbicidal effect rating, MOOVA ([3]; Rate 0.0620 kg/ha) | herbicidal effect rating, MOOVA ([3]; Rate 0.2500 kg/ha)

CN(C)S(=O)(=O)NC(=O)c1nsc2ccc(-n3c(=O)cc(C(F)(F)F)n(C)c3=O)cc12 [Example 507, 1,2-Benzisothiazole-3-carboxamide, 5-[3,6-dihydro-3-methyl-2,6-dioxo-4-(trifluoromethyl)-1(2H)-pyrimidinyl]-N-(dimethylsulfamoyl)-]
3.0: ORYSAT herbicidal rating (rice tolerance) ([4]; 0.0320 kg/ha)
4.0: ECHORC herbicidal rating ([1]; 0.1250 kg/ha)
7.0: ECHORC herbicidal rating ([1]; 0.2500 kg/ha) | SAGPY herbicidal rating (Sagittaria pygmaea, L.; 0.0320 kg/ha) | ORYSAT herbicidal rating (rice tolerance) ([4]; 0.1250 kg/ha)
5.0: CYPIR herbicidal rating (Cyperus iria; 0.0320 kg/ha) | ORYSAT herbicidal rating (rice tolerance) ([4]; 0.0620 kg/ha) | ORYSAT herbicidal rating (rice tolerance) ([4]; 0.2500 kg/ha)
2.0: ECHORC herbicidal rating ([1]; 0.0320 kg/ha) | ECHORC herbicidal rating ([1]; 0.0620 kg/ha)
0.0: CYPSE herbicidal rating ([2]; 0.0320 kg/ha, preemergence, rated three to four weeks after treatment)
9.0: CYPIR herbicidal rating (Cyperus iria; 0.1250 kg/ha) | CYPIR herbicidal rating (Cyperus iria; 0.2500 kg/ha) | MOOVA herbicidal rating ([3]; 0.0320 kg/ha) | MOOVA herbicidal rating ([3]; 0.0620 kg/ha) | MOOVA herbicidal rating ([3]; 0.1250 kg/ha) | MOOVA herbicidal rating ([3]; 0.2500 kg/ha) | SAGPY herbicidal rating (Sagittaria pygmaea, L.; 0.0620 kg/ha) | SAGPY herbicidal rating (Sagittaria pygmaea, L.; 0.1250 kg/ha) | SAGPY herbicidal rating (Sagittaria pygmaea, L.; 0.2500 kg/ha)
6.0: CYPIR herbicidal rating (Cyperus iria; 0.0620 kg/ha)

CCN(CC)C(=O)COc1ccc(C)cc1-c1nsc2ccc(-n3c(=O)cc(C(F)(F)F)n(C)c3=O)cc12 [Example 60, 3-{3-{6-[(Diethylcarbamoyl)methoxy]-m-tolyl}-1,2-benzisothiazol-5-yl}-1-methyl-6-(trifluoromethyl)-2,4(1H,3H)-pyrimidinedione]
8.0: herbicidal effect rating, ECHORC ([1]; 0.1250 kg/ha)
9.0: herbicidal effect rating, ECHORC ([1]; 0.2500 kg/ha) | herbicidal effect rating, MOOVA ([3]; 0.0313 kg/ha) | herbicidal effect rating, MOOVA ([3]; 0.0625 kg/ha) | herbicidal effect rating, MOOVA ([3]; 0.1250 kg/ha) | herbicidal effect rating, MOOVA ([3]; 0.2500 kg/ha)
0.0: herbicidal effect rating, CYPIR (Cyperus iria; 0.0313 kg/ha) | herbicidal effect rating, CYPIR (Cyperus iria; 0.0625 kg/ha) | herbicidal effect rating, CYPIR (Cyperus iria; 0.1250 kg/ha) | herbicidal effect rating, CYPIR (Cyperus iria; 0.2500 kg/ha) | herbicidal effect rating, CYPSE [2, 6] | herbicidal effect rating, CYPSE [2, 7] | herbicidal effect rating, CYPSE [2, 8] | herbicidal effect rating, CYPSE [2, 9] | herbicidal effect rating, SAGPY (Sagittaria pygmaea, L.; 0.0313 kg/ha) | herbicidal effect rating, SAGPY (Sagittaria pygmaea, L.; 0.0625 kg/ha) | herbicidal effect rating, SAGPY (Sagittaria pygmaea, L.; 0.1250 kg/ha) | herbicidal effect rating, SAGPY (Sagittaria pygmaea, L.; 0.2500 kg/ha) | herbicidal effect rating, ORYSAT (rice tolerance) ([4]; 0.0313 kg/ha) | herbicidal effect rating, ORYSAT (rice tolerance) ([4]; 0.0625 kg/ha) | herbicidal effect rating, ORYSAT (rice tolerance) ([4]; 0.1250 kg/ha) | herbicidal effect rating, ORYSAT (rice tolerance) ([4]; 0.2500 kg/ha)
4.0: herbicidal effect rating, ECHORC ([1]; 0.0625 kg/ha)
2.0: herbicidal effect rating, ECHORC ([1]; 0.0313 kg/ha)

CSCc1nsc2ccc(-n3c(=O)cc(C(F)(F)F)n(C)c3=O)cc12 [Example 21, 1-Methyl-3-{3-{(methylthio)methyl]-1,2-benzisothiazol-5-yl}-6-(trifluoromethyl)-2,4(1H,3H)-pyrimidinedione]
0.0: herbicidal effect rating, ECHORC ([1]; 0.0313 kg/ha) | herbicidal effect rating, CYPIR (Cyperus iria; 0.0313 kg/ha) | herbicidal effect rating, CYPIR (Cyperus iria; 0.0625 kg/ha) | herbicidal effect rating, CYPSE [2, 6] | herbicidal effect rating, CYPSE [2, 7] | herbicidal effect rating, CYPSE [2, 8] | herbicidal effect rating, CYPSE [2, 9] | herbicidal effect rating, SAGPY (Sagittaria pygmaea, L.; 0.0313 kg/ha) | herbicidal effect rating, SAGPY (Sagittaria pygmaea, L.; 0.0625 kg/ha) | herbicidal effect rating, SAGPY (Sagittaria pygmaea, L.; 0.1250 kg/ha) | herbicidal effect rating, SAGPY (Sagittaria pygmaea, L.; 0.2500 kg/ha)
4.3: herbicidal effect rating, ORYSAT (rice tolerance) ([4]; 0.2500 kg/ha)
2.7: herbicidal effect rating, ECHORC ([1]; 0.1250 kg/ha)
7.5: herbicidal effect rating, MOOVA ([3]; 0.1250 kg/ha)
2.0: herbicidal effect rating, ORYSAT (rice tolerance) ([4]; 0.0625 kg/ha)
6.0: herbicidal effect rating, MOOVA ([3]; 0.0625 kg/ha)
4.7: herbicidal effect rating, ECHORC ([1]; 0.2500 kg/ha)
1.0: herbicidal effect rating, CYPIR (Cyperus iria; 0.2500 kg/ha)
0.5: herbicidal effect rating, CYPIR (Cyperus iria; 0.1250 kg/ha)
1.7: herbicidal effect rating, ORYSAT (rice tolerance) ([4]; 0.0313 kg/ha)
9.0: herbicidal effect rating, MOOVA ([3]; 0.2500 kg/ha)
0.7: herbicidal effect rating, ECHORC ([1]; 0.0625 kg/ha)
4.0: herbicidal effect rating, MOOVA ([3]; 0.0313 kg/ha)
2.3: herbicidal effect rating, ORYSAT (rice tolerance) ([4]; 0.1250 kg/ha)

CCOCN(C(=O)c1nsc2ccc(-n3c(=O)cc(C(F)(F)F)n(C)c3=O)cc12)S(=O)(=O)Cc1ccccc1 [Example 440, 1,2-Benzisothiazole-3-carboxamide, N-(benzylsulfonyl)-5-[3,6-dihydro-3-methyl-2,6-dioxo-4-(trifluoromethyl)-1(2H)-pyrimidinyl]-N-(ethoxymethyl)-]
4.0: SAGPY (Sagittaria pygmaea, L.; 0.0320 kg/ha) | ORYSAT ([4]; 0.0620 kg/ha) | ORYSAT ([4]; 0.1250 kg/ha) | ORYSAT ([4]; 0.2500 kg/ha)
3.0: ORYSAT ([4]; 0.0320 kg/ha)
9.0: ECHORC ([1]; 0.1250 kg/ha) | ECHORC ([1]; 0.2500 kg/ha) | CYPIR (Cyperus iria; 0.0620 kg/ha) | CYPIR (Cyperus iria; 0.1250 kg/ha) | CYPIR (Cyperus iria; 0.2500 kg/ha) | CYPSE ([2]; 0.0620 kg/ha) | CYPSE ([2]; 0.1250 kg/ha) | CYPSE ([2]; 0.2500 kg/ha) | MOOVA ([3]; 0.0620 kg/ha) | MOOVA ([3]; 0.1250 kg/ha) | MOOVA ([3]; 0.2500 kg/ha) | SAGPY (Sagittaria pygmaea, L.; 0.2500 kg/ha)
5.0: ECHORC ([1]; 0.0320 kg/ha) | CYPIR (Cyperus iria; 0.0320 kg/ha)
7.0: ECHORC ([1]; 0.0620 kg/ha) | MOOVA ([3]; 0.0320 kg/ha) | SAGPY (Sagittaria pygmaea, L.; 0.1250 kg/ha)
6.0: CYPSE ([2]; 0.0320 kg/ha) | SAGPY (Sagittaria pygmaea, L.; 0.0620 kg/ha)

Cn1c(C(F)(F)F)cc(=O)n(-c2ccc3snc(COC4C=CCCC4)c3c2)c1=O (stereo not shown) [Example 209, 3-{3-[(2-Cyclohexen-1-yloxy)methyl]-1,2-benzisothiazol-5-yl}-1-methyl-6-(trifluoromethyl)-2,4(1H,3H)-pyrimidinedione]
1.0: ECHORC herbicidal effect rating ([1]; Rate 0.0313 kg/ha)
3.0: ORYSAT herbicidal effect rating ([4]; Rate 0.0313 kg/ha) | ORYSAT herbicidal effect rating ([4]; Rate 0.0625 kg/ha)
8.0: CYPIR herbicidal effect rating (Cyperus iria; Rate 0.1250 kg/ha)
4.0: CYPIR herbicidal effect rating (Cyperus iria; Rate 0.0625 kg/ha) | ORYSAT herbicidal effect rating ([4]; Rate 0.1250 kg/ha)
2.0: ECHORC herbicidal effect rating ([1]; Rate 0.0625 kg/ha) | ECHORC herbicidal effect rating ([1]; Rate 0.1250 kg/ha) | CYPIR herbicidal effect rating (Cyperus iria; Rate 0.0313 kg/ha)
0.0: CYPSE herbicidal effect rating ([2]; Rate 0.0313 kg/ha, preemergence, rated three to four weeks after treatment) | CYPSE herbicidal effect rating ([2]; Rate 0.0625 kg/ha, preemergence, rated three to four weeks after treatment) | CYPSE herbicidal effect rating [2, 5] | MOOVA herbicidal effect rating ([3]; Rate 0.0313 kg/ha) | MOOVA herbicidal effect rating ([3]; Rate 0.0625 kg/ha) | MOOVA herbicidal effect rating ([3]; Rate 0.1250 kg/ha) | SAGPY herbicidal effect rating (Sagittaria pygmaea, L.; Rate 0.0313 kg/ha) | SAGPY herbicidal effect rating (Sagittaria pygmaea, L.; Rate 0.0625 kg/ha) | SAGPY herbicidal effect rating (Sagittaria pygmaea, L.; Rate 0.1250 kg/ha)
